From patent publication US9371331B2, “Modulators of methyl modifying enzymes, compositions and uses thereof” (Constellation Pharmaceuticals, Inc., priority 2012, dated 2016)
Counter-ions that a name gives are not always drawn. Like-named read-outs stand apart in the source and are kept apart here.

Columns and labels:
[1] = biological target: EZH2 (rPRC2) (Homo sapiens, UniProt Q15910); assay: EZH2 assay: rPRC2, biotinylated oligonucleosomes, 3H SAM methyl transfer (FlashPlate scintillation); format: biochemical; conditions: biotinylated oligonucleosome substrate
Procedure: Assays were carried out by mixing rPRC2 together with biotinylated oligonucleosome substrates in the presence of the radio-labeled enzyme co-factor, S-adenosyl-1-methionine (^3H SAM) (Perkin Elmer) and monitoring the enzymatically mediated transfer of tritiated methyl groups from ^3H SAM to histone lysine residues. The amount of resulting tritiated methyl histone product was measured by first capturing the biotinylated oligonucleosomes in streptavidin (SAV) coated FlashPlates (Perkin Elmer), followed by a wash step to remove un-reacted ^3H SAM, and then counting on a TopCount NXT 384 well plate scintillation counter (Perkin Elmer). The final assay conditions for EZH2 were as follows: 50 mM Tris Buffer pH 8.5, 1 mM DTT, 69 μM Brij-35 detergent, 5.0 mM MgCl2, 0.1 mg/mL BSA, 0.2 μM ^3H SAM, 0.2 μM biotinylated oligonucleosomes, 3.6 μM H3K27 mc3 peptide and 2 nM EZH2.
A 12.5 μL volume of the HMT enzyme, H3K27me3 peptide and oligonucleosome substrate in assay buffer was added to each well of the assay plate using a Multidrop Combi (ThermoFisher). Compounds were pre-incubated with the enzyme for 20 min, followed by initiation of the methyltransferase reaction by addition of 12.5 μL of ^3H SAM in assay buffer (final volume=25 μL). The final concentrations of compounds ranged from a top default concentration of 80 μM down to 0.16 μM in ten 2-fold dilution steps. Reactions were carried out for 60 minutes and quenched with 20 μL per well of 1.96 mM SAH, 50 mM Tris pH 8.5, 200 mM EDTA. Stopped reactions were transferred to SAV coated Flashplates (Perkin Elmer), incubated for 120 min, washed with a plate washer, and then read on the TopCount NXT (1.0 min/well) to measure the amount of methyl histone product formed during the reaction.

[2] = biological target: Y641N EZH2 (Homo sapiens, UniProt Q15910, Y641N); assay: Y641N EZH2 assay: as EZH2 assay, with reconstituted H3K27Me2 oligonucleosomes as substrate; format: biochemical
[3] = EZH2 IC50, wild-type EZH2 (rPRC2)
[4] = Y641N EZH2 IC50, Y641N mutant EZH2, H3K27Me2 oligonucleosome substrate

Chain of Y641N EZH2 (Q15910 whole entry Y641N): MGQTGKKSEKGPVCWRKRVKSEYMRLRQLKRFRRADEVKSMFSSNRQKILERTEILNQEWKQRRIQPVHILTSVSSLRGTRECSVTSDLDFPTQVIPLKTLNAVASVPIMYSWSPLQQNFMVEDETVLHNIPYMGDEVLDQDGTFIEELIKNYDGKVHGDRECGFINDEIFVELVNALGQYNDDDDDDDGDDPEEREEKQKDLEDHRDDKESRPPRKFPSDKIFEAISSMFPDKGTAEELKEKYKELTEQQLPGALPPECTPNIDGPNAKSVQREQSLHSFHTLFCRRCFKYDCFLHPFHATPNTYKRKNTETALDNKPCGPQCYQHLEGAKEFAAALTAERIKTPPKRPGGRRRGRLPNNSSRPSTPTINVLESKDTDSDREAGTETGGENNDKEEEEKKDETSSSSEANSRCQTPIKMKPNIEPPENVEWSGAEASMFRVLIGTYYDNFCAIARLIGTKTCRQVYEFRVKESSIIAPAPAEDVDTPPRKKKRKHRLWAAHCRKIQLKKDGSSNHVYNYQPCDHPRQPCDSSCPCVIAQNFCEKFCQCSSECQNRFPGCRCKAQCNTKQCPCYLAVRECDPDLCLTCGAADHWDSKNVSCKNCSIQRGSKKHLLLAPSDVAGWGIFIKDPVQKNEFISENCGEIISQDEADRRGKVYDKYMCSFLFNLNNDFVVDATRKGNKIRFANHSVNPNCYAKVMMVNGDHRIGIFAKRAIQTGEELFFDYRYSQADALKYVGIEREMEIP
Chain of Y641N EZH2 (O75530 whole entry partner): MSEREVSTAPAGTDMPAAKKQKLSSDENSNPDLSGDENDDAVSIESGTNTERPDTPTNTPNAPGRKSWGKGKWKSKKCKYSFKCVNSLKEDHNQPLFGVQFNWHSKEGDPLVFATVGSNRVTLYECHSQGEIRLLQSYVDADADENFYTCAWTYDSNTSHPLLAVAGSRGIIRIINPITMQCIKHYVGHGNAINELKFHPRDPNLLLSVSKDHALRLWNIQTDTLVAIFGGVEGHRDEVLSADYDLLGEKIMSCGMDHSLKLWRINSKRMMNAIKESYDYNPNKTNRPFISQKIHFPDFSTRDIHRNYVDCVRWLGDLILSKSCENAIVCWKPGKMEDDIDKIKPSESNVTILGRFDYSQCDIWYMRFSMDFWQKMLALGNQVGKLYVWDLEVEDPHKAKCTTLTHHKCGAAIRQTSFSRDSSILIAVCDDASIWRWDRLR
Chain of Y641N EZH2 (Q15022 whole entry partner): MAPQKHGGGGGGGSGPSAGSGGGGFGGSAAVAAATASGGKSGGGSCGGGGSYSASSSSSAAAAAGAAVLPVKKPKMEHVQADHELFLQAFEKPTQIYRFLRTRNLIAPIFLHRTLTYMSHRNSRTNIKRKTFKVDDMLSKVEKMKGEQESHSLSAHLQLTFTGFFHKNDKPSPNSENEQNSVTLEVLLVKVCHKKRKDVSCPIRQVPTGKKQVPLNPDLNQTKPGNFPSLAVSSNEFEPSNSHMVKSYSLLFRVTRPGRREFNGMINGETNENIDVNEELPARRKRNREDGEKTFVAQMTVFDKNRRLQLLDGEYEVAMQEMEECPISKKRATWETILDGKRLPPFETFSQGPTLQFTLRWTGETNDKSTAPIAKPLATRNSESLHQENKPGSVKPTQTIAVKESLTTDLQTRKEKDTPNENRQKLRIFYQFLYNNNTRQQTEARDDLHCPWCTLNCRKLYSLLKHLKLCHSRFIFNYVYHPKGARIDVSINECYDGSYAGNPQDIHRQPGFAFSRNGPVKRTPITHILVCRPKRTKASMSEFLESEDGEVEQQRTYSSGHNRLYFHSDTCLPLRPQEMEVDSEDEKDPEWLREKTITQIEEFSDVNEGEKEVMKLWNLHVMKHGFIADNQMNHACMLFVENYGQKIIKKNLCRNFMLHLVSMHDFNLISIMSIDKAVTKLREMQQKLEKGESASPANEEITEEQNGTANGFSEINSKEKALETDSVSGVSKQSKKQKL
Chain of EZH2 (rPRC2) (Q15910 whole entry): as the sequence (Q15910 whole entry Y641N) above, with N641Y counted along it
Chain of EZH2 (rPRC2) (O75530 whole entry partner): as the sequence (O75530 whole entry partner) above
Chain of EZH2 (rPRC2) (Q15022 whole entry partner): as the sequence (Q15022 whole entry partner) above

Question: Which IC50 [1, 3] does the source give for `COCC(C)n1c(C)c(C(=O)NCc2c(OC)cc(C)[nH]c2=O)c2ccccc21` (single isomer, unassigned) [Compound 223, N-((4-methoxy-6-methyl-2-oxo-1,2-dihydropyridin-3-yl)methyl)-1-(1-methoxypropan-2-yl)-2-methyl-1H-indole-3-carboxamide] here?
Answer: < 100 nM

Question: And the IC50 [2, 4]?
Answer: 100 to 1000 nM

Question: Which results are given for `Cc1cc(C)c(CNC(=O)c2c(C)n(C(C)c3cccc(C(N)=O)c3)c3ccccc23)c(=O)[nH]1` (single isomer, unassigned) [Compound 225, (R or S)-1-(1-(3-carbamoylphenyl)ethyl)-N-((4,6-dimethyl-2-oxo-1,2-dihydropyridin-3-yl)methyl)-2-methyl-1H-indole-3-carboxamide]?
Answer: IC50 [1, 3]: < 100 nM; IC50 [2, 4]: < 100 nM

Question: For `Cc1cc(C)c(CNC(=O)c2c(C)n(C(C)c3cccc(C(N)=O)c3)c3ccccc23)c(=O)[nH]1` (single isomer, unassigned) [Compound 226, (R or S)-1-(1-(3-carbamoylphenyl)ethyl)-N-((4,6-dimethyl-2-oxo-1,2-dihydropyridin-3-yl)methyl)-2-methyl-1H-indole-3-carboxamide], which IC50 [1, 3] is on record?
Answer: 100 to 1000 nM

Question: And the IC50 [2, 4]?
Answer: 1000 to 10000 nM

Question: What does the source list for `Cc1cc(C)c(CNC(=O)c2c(C)n(C(C)c3cccc(C#N)c3)c3ccccc23)c(=O)[nH]1` (single isomer, unassigned) [Compound 228, (R or S)-1-(1-(3-cyanophenyl)ethyl)-N-((4,6-dimethyl-2-oxo-1,2-dihydropyridin-3-yl)methyl)-2-methyl-1H-indole-3-carboxamide]?
Answer: IC50 [1, 3]: 100 to 1000 nM; IC50 [2, 4]: 100 to 1000 nM

Question: What does the source list for `Cc1cc(C)c(CNC(=O)c2c(C)n(C(C)c3ccccc3)c3cnccc23)c(=O)[nH]1` (single isomer, unassigned) [Compound 247, (R or S)—N-((4,6-dimethyl-2-oxo-1,2-dihydropyridin-3-yl)methyl)-2-methyl-1-(1-phenylethyl)-1H-pyrrolo[2,3-c]pyridine-3-carboxamide]?
Answer: IC50 [1, 3]: < 100 nM; IC50 [2, 4]: < 100 nM

Question: Which results are given for `Cc1cc(C)c(CNC(=O)c2c(C)n(C(C)c3ccccc3)c3cnccc23)c(=O)[nH]1` (single isomer, unassigned) [Compound 248, (R or S)—N-((4,6-dimethyl-2-oxo-1,2-dihydropyridin-3-yl)methyl)-2-methyl-1-(1-phenylethyl)-1H-pyrrolo[2,3-c]pyridine-3-carboxamide]?
Answer: IC50 ([1]; read-out: EZH2 IC50, wild-type EZH2 (rPRC2)): < 100 nM; IC50 [2, 4]: 100 to 1000 nM

Question: For `Cc1cc(C)c(CNC(=O)c2c(C)n(C(C)C3CC3)c3ncccc23)c(=O)[nH]1` (single isomer, unassigned) [Compound 252, (R or S)-(±)-1-(1-cyclopropylethyl)-N-((4,6-dimethyl-2-oxo-1,2-dihydropyridin-3-yl)methyl)-2-methyl-1H-pyrrolo[2,3-b]pyridine-3-carboxamide], which IC50 [1, 3] is on record?
Answer: < 100 nM

Question: What about the IC50 [2, 4] of the same compound?
Answer: 100 to 1000 nM

Question: `COCC(C)n1c(C)c(C(=O)NCc2c(OC)cc(C)[nH]c2=O)c2cccnc21` (single isomer, unassigned) [Compound 257, (R or S)-N-((4-methoxy-6-methyl-2-oxo-1,2-dihydropyridin-3-yl)methyl)-1-(1-methoxypropan-2-yl)-2-methyl-1H-pyrrolo[2,3-b]pyridine-3-carboxamide] was tested. Which IC50 [1, 3] did it give?
Answer: 100 to 1000 nM

Question: And the IC50 [2, 4]?
Answer: 1000 to 10000 nM

Question: For `COc1cc(C)[nH]c(=O)c1CNC(=O)c1c(C)n(C(C)C(C)OC)c2ncccc12` (single isomer, unassigned) [Compound 267, N-((4-methoxy-6-methyl-2-oxo-1,2-dihydropyridin-3-yl)methyl)-1-((2R or 2S, 3R or 3S)-3-methoxybutan-2-yl)-2-methyl-1H-pyrrolo[2,3-b]pyridine-3-carboxamide], which IC50 ([1]; wild-type EZH2 (rPRC2), read-out: EZH2 IC50) is on record?
Answer: < 100 nM

Question: And the IC50 ([2]; Y641N mutant EZH2, H3K27Me2 oligonucleosome substrate, read-out: Y641N EZH2 IC50)?
Answer: 100 to 1000 nM

Question: How did the IC50 [1, 3] turn out when `COc1cc(C)[nH]c(=O)c1CNC(=O)c1c(C)n(C(C)c2ccn(C)c(=O)c2)c2ncccc12` (single isomer, unassigned) [Compound 268, (R or S)-N-((4-methoxy-6-methyl-2-oxo-1,2-dihydropyridin-3-yl)methyl)-2-methyl-1-(1-(1-methyl-2-oxo-1,2-dihydropyridin-4-yl)ethyl)-1H-pyrrolo[2,3-b]pyridine-3-carboxamide] was run?
Answer: < 100 nM

Question: What about the IC50 [2, 4] of the same compound?
Answer: 100 to 1000 nM

Question: Which IC50 [1, 3] does the source give for `COc1cc(C)[nH]c(=O)c1CNC(=O)c1c(C)n(C(C)c2ccn(C)c(=O)c2)c2ncccc12` (single isomer, unassigned) [Compound 269, (R or S)-N-((4-methoxy-6-methyl-2-oxo-1,2-dihydropyridin-3-yl)methyl)-2-methyl-1-(1-(1-methyl-2-oxo-1,2-dihydropyridin-4-yl)ethyl)-1H-pyrrolo[2,3-b]pyridine-3-carboxamide] here?
Answer: 100 to 1000 nM

Question: And the IC50 [2, 4]?
Answer: 1000 to 10000 nM

Question: Which IC50 [1, 3] does the source give for `COc1cc(C)[nH]c(=O)c1CNC(=O)c1c(C)n(C(C)CS(C)(=O)=O)c2ccccc12` (single isomer, unassigned) [Compound 278, (R or S)-N-((4-methoxy-6-methyl-2-oxo-1,2-dihydropyridin-3-yl)methyl)-2-methyl-1-(1-(methylsulfonyl)propan-2-yl)-1H-indole-3-carboxamide] here?
Answer: 100 to 1000 nM

Question: And the IC50 [2, 4]?
Answer: 1000 to 10000 nM

Question: Which results are given for `COc1cc(C)[nH]c(=O)c1CNC(=O)c1c(C)n([C@H](C)[C@H](OC)C2CC2)c2ncccc12` (single isomer, unassigned) [Compound 285, 1-((1R or S, 2R or S)-1-cyclopropyl-1-methoxypropan-2-yl)-N-((4-methoxy-6-methyl-2-oxo-1,2-dihydropyridin-3-yl)methyl)-2-methyl-1H-pyrrolo[2,3-b]pyridine-3-carboxamide]?
Answer: IC50 [1, 3]: 100 to 1000 nM; IC50 [2, 4]: 1000 to 10000 nM

Question: How did the IC50 [1, 3] turn out when `COc1cc(C)[nH]c(=O)c1CNC(=O)c1c(C)n([C@H](C)[C@H](OC)C2CC2)c2ncccc12` (single isomer, unassigned) [Compound 292, 1-((1R or S, 2R or S)-1-cyclopropyl-1-methoxypropan-2-yl)-N-((4-methoxy-6-methyl-2-oxo-1,2-dihydropyridin-3-yl)methyl)-2-methyl-1H-pyrrolo[2,3-b]pyridine-3-carboxamide] was run?
Answer: < 100 nM

Question: And the IC50 [2, 4]?
Answer: 100 to 1000 nM

Question: What does the source list for `COc1cc(C)[nH]c(=O)c1CNC(=O)c1c(C)n(C(C)C(C)OC)c2ncccc12` (single isomer, unassigned) [Compound 302, N-((4-methoxy-6-methyl-2-oxo-1,2-dihydropyridin-3-yl)methyl)-1-((2R or 2S, 3R or 3S)-3-methoxybutan-2-yl)-2-methyl-1H-pyrrolo[2,3-b]pyridine-3-carboxamide]?
Answer: IC50 [1, 3]: 100 to 1000 nM; IC50 [2, 4]: 1000 to 10000 nM

Question: Which IC50 [1, 3] does the source give for `COc1cc(C)[nH]c(=O)c1CNC(=O)c1c(C)n(C(C)C2CCS(=O)(=O)CC2)c2ccccc12` (single isomer, unassigned) [Compound 305, (R or S)-1-(1-(1,1-dioxidotetrahydro-2H-thiopyran-4-yl)ethy1)-N-((4-methoxy-6-methyl-2-oxo-1,2-dihydropyridin-3-yl)methy1)-2-methyl-1H-indole-3-carboxamide] here?
Answer: < 100 nM

Question: And the IC50 [2, 4]?
Answer: 100 to 1000 nM

Question: Which results are given for `COc1cc(C)[nH]c(=O)c1CNC(=O)c1c(C)n(C(C)C(C)OC)c2ccccc12` (single isomer, unassigned) [Compound 307, Trans-(R or S, R or S)-N-((4-methoxy-6-methyl-2-oxo-1,2-dihydropyridin-3-yl)methyl)-1-(3-methoxybutan-2-yl)-2-methyl-1H-indole-3-carboxamide]?
Answer: IC50 [1, 3]: < 100 nM; IC50 [2, 4]: < 100 nM

Question: For `COc1cc(C)[nH]c(=O)c1CNC(=O)c1c(C)n(C(C)C(C)OC)c2ccccc12` (single isomer, unassigned) [Compound 308, Trans-(R or S, R or S)-N-((4-methoxy-6-methyl-2-oxo-1,2-dihydropyridin-3-yl)methyl)-1-(3-methoxybutan-2-yl)-2-methyl-1H-indole-3-carboxamide], which IC50 [1, 3] is on record?
Answer: 100 to 1000 nM

Question: What about the IC50 [2, 4] of the same compound?
Answer: 100 to 1000 nM

Question: Which IC50 [1, 3] does the source give for `COc1cc(C)[nH]c(=O)c1CNC(=O)c1c(C)n(C(C)C2CCN(CC(=O)O)CC2)c2ccccc12` (single isomer, unassigned) [Compound 364, (R or S)-2-(4-(1-(3-((4-methoxy-6-methyl-2-oxo-1,2-dihydropyridin-3-yl)methylcarbamoyl)-2-methyl-1H-indol-1-yl)ethyl)piperidin-1-yl) acetic acid] here?
Answer: < 100 nM

Question: And the IC50 [2, 4]?
Answer: 100 to 1000 nM

Question: For `Cc1cc(C)c(CNC(=O)c2c(C)n(C(C)C3CCN(C4CNC4)CC3)c3ccccc23)c(=O)[nH]1` (single isomer, unassigned) [Compound 376, (R or S)-1-(1-(1-(azetidin-3-yl)piperidin-4-yl)ethyl)-N-((4,6-dimethyl-2-oxo-1,2-dihydropyridin-3-yl)methyl)-2-methyl-1 H-indole-3-carboxamide hydrochloride], which IC50 [1, 3] is on record?
Answer: < 100 nM

Question: And the IC50 [2, 4]?
Answer: < 100 nM
